One may read the IC50 as the midpoint of a concentration-inhibition curve. Low values mean greater potency, high ones weaker potency.

The values that follow come from ChEMBL document CHEMBL3351856, “Structural revision of kynapcin-12 by total synthesis, and inhibitory activities against prolyl oligopeptidase and cancer cells” (Bioorg Med Chem Lett, 2014).

A short description of assay [1]: cells. To be noted: Homo sapiens, HL-60, 48 h.
Description: Cytotoxicity against human HL60 cells after 48 hrs by MTT assay
Assay [2] addresses T1, Prolyl endopeptidase (Homo sapiens, UniProt P48147).
T1 sequence (P48147 whole entry): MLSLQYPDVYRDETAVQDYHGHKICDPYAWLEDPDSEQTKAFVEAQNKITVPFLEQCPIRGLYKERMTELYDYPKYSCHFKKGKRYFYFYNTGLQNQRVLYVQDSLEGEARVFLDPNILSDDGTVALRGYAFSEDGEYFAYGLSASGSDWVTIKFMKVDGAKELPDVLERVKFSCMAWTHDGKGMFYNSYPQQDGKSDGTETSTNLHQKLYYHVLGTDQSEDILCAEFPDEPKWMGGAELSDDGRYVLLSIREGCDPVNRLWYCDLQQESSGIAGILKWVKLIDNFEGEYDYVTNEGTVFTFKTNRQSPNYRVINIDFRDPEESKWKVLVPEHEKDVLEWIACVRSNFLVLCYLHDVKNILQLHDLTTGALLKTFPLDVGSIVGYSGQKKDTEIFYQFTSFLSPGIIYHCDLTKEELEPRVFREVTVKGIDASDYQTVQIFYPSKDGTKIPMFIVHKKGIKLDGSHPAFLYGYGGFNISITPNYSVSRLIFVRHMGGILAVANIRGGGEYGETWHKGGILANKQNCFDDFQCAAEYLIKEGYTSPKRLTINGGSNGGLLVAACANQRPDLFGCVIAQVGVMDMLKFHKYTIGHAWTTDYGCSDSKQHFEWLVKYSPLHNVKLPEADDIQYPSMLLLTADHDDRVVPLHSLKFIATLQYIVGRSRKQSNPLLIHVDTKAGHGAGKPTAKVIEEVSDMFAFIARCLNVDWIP
As to the kind of experiment: Inhibition of prolyl oligopeptidase (unknown origin).

Bridge positions count the residues as written; N and C are the ends. Peptide text beside a SMILES is read from it. Bounds are passed on as bounds.

Take `CC(=O)Oc1c(OC(C)=O)c(-c2ccc(O)cc2)c(O)c(O)c1-c1ccc(O)cc1`: the IC50 in assay [1] was greater than 20 µM.

Compound `COCC1=C(c2ccc(O[Si](C)(C)C(C)(C)C)cc2)C(=O)C(COC)=C(c2ccc(O[Si](C)(C)C(C)(C)C)cc2)C1=O` had an IC50 in assay [1] of 6.5 µM.

For `COCc1c(OC(C)=O)c(-c2ccc(O[Si](C)(C)C(C)(C)C)cc2)c(COC)c(OC(C)=O)c1-c1ccc(O[Si](C)(C)C(C)(C)C)cc1`, the IC50 in assay [2] is greater than 50 µM; in assay [1], 19.1 µM.

As for `COCc1c(COC)c(-c2ccc(O[Si](C)(C)C(C)(C)C)cc2)c(COC)c(COC)c1-c1ccc(O[Si](C)(C)C(C)(C)C)cc1`, the IC50 in assay [2] was greater than 50 µM; in assay [1], 14.4 µM.

With `CC[C@H](C)[C@H](NC(=O)[C@H](Cc1ccccc1)NC(=O)[C@@H](NC(=O)[C@H](Cc1cnc[nH]1)NC(=O)CNC(=O)CNC(=O)[C@H](Cc1ccccc1)NC(=O)[C@H](CC(C)C)NC(=O)[C@@H]1CC(=O)NCC(=O)N[C@@H](Cc2ccc(O)cc2)C(=O)N2CCC[C@H]2C(=O)N[C@@H](Cc2c[nH]c3ccccc23)C(=O)N[C@@H](Cc2c[nH]c3ccccc23)C(=O)N[C@@H](CC(=O)O)C(=O)N[C@@H](Cc2ccc(O)cc2)C(=O)N[C@@H](CCCNC(=N)N)C(=O)N1)[C@@H](C)O)C(=O)N[C@@H](CO)C(=O)N1CCC[C@H]1C(=O)O` (GYPWWDYRDLFGGHTFISP-OH; lactam N-9), the IC50 in assay [2] stood at 1.4 µM.

With `CC(C)(C)[Si](C)(C)Oc1ccc(C2=C3OCOC3=C(c3ccc(O[Si](C)(C)C(C)(C)C)cc3)C(=O)C2=O)cc1`, the values for the IC50 in assay [2] and in assay [1] were 15.1 µM and 2.8 µM, respectively.

Regarding `CC(=O)Oc1c(OC(C)=O)c(-c2ccc(O[Si](C)(C)C(C)(C)C)cc2)c2c(c1-c1ccc(O[Si](C)(C)C(C)(C)C)cc1)OCO2`, in assay [1], the IC50 amounted to 2.9 µM.

`CC(=O)OC1=C(c2ccc(O)cc2)C(=O)C(OC(C)=O)=C(c2ccc(O)cc2)C1=O` came in with an IC50 in assay [1] greater than 20 µM.

`CC(=O)Oc1c(OC(C)=O)c(-c2ccc(O[Si](C)(C)C(C)(C)C)cc2)c2c(c1-c1ccc(O[Si](C)(C)C(C)(C)C)cc1)OC(OC(C)=O)O2`: the IC50 in assay [2] was found to be 3.5 µM; in assay [1] it was 4.2 µM.
